Here are results for 25 compounds from publication PMC5442318, “Hundreds of dual-stage antimalarial molecules discovered by a functional gametocyte screen” (Nature Communications, 2017).

Where two headings read alike, the source gives them in different places.

Data set [1] deals with HepG2 cells. In words: HepG2 cytotoxicity assay. Type of data set: cell-based. Put shortly:
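Once incubation ended, the HepG2 plates were warmed to room temperature for 30 min alongside the CellTiter-Glo reagent. Luminescent signal was developed by reagent addition and stabilized for 10 min before plate reading.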

In data set [2] the test system is P. falciparum asexual blood stages. The following applies: read-out: Pf Asexual blood stages XC50, cited from earlier work.
Data set [3] deals with P. falciparum stages IV–V gametocytes. In words: Gametocytocidal ATP-depletion assay (gametocyte ATP bioluminescence). It counts as cell-based, Plasmodium falciparum. Put shortly:
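Read-out is luciferase luminescence of parasite ATP (BacTiter-Glo), standing in for viability. Double-purified mature stage IV–V gametocytes, 12,500 per well, were exposed 48 h at 37 °C in low-O2 gas; screening concentration 2 μM.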

The test system of data set [4] is P. falciparum stage V female gametocytes. Description: P. falciparum female gametocyte activation assay (Pf FGAA), 24 h or 48 h preincubation, Pfs25 expression readout. Type of data set: cell-based, Plasmodium falciparum NF54. The note with it: mean, read-out: Gametocytes mean Pf FGAA IC50. Put shortly:
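Female activation, triggered by xanthurenic acid and cooling, was scored by imaging Cy3-labelled anti-Pfs25 female gametes after 24 h at 26 °C. Beforehand, purified NF54 stage V gametocytes had been incubated with compound for either 24 h or 48 h (37 °C, 3% O2). Values are pIC50 from full-curve regression.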

Setting [5] is: TCAMS data, ref 1 (Gamo et al., 2010).
The mark [6] stands for this setting: TCAMS asexual blood stage data, ref 1 (Gamo, F. J. et al., Nature 465, 305-310, 2010).
The mark [7] stands for this setting: P. falciparum female gametocyte activation assay.
Setting [8] is: P. falciparum female gametocytes.

With `CC(Cc1ccc(OCCCCOc2ccccc2)cc1)NCCC1CCCN1C` (stereo not shown) [TCMDC-140017], the “HepG2 cells mean TOX50” value in data set [1] (mean) is reported as 1.12 µM. Besides, the IC50 is 0.04 µM in data set [2] (setting [5]) and 0.2 µM in data set [4]. Moreover, the “Gametocytes mean ATP inhibition at 2µM (%)” value in data set [3] stood at 85.16%.

`CN(C)CCNCc1ccc(-c2ccc3c(Nc4ccc(Cl)cc4F)ccnc3c2)o1` [TCMDC-138391]: the “HepG2 cells mean TOX50” value in data set [1] (mean) stood at 0.89 µM. The IC50 in data set [2] (setting [5]) is 0.21 µM; in data set [4], 1.71 µM. For the same compound, the “Gametocytes mean ATP inhibition at 2µM (%)” value in data set [3] is recorded as 2.24%.

As for `CN1CCN(c2ccc(Nc3ncc([N+](=O)[O-])c(Nc4ccccc4O)n3)cc2)CC1.O=C(O)C(F)(F)F` [TCMDC-141372], in data set [1] (mean; HepG2 cells), the “HepG2 cells mean TOX50” value is on record as 1.82 µM. Besides, the results for the IC50 in data set [2] (setting [6]) and in data set [4] (setting [7]) were 0.72 µM and 2.01 µM, respectively. Moreover, the “Gametocytes mean ATP inhibition at 2µM” value in data set [3] is -21.03%.

With `CN1CCCC1CCNc1ncc2c(-c3ccc(NC(=O)Nc4cc(C(F)(F)F)ccc4F)c(F)c3)nn(C)c2n1.O=C(O)C(F)(F)F` (stereo not shown) [TCMDC-141610], the “HepG2 cells mean TOX50” value in data set [1] (mean; HepG2 cells) is listed as 4.62 µM. Moreover, the results for the IC50 in data set [2] (setting [6]) and in data set [4] (setting [7]) were 0.29 µM and 1.47 µM, respectively. Besides, the “Gametocytes mean ATP inhibition at 2µM” value in data set [3] is on record as -9.33%.

Consider `COc1ccc2nc3cc(Cl)ccc3c(N)c2c1.Cl` [TCMDC-125835], for which the “HepG2 cells mean TOX50” value in data set [1] (HepG2 cells; mean) is given as 1.57 µM. The IC50 was 0.17 µM in data set [2] (setting [6]) and 0.67 µM in data set [4] (setting [8]). The “Gametocytes mean ATP inhibition at 2µM” value in data set [3] came out at 101.44%.

For the compound `CC(C)(C)c1cc(NC2CC2)nc(-c2ccccn2)n1` [TCMDC-125826], the “HepG2 cells mean TOX50” value in data set [1] (HepG2 cells; mean) is above 100 µM. Besides, the figures for the IC50 in data set [2] (setting [6]) and in data set [4] (setting [8]) were 0.72 µM and 0.12 µM, respectively. Moreover, in data set [3], the “Gametocytes mean ATP inhibition at 2µM” value is 84.45%.

For the compound `CC(C)c1ccc(CN2CCC(CNC(=O)c3cc(-c4cccc(F)c4)cs3)C2)cc1.O=C(O)C(F)(F)F` (stereo not shown) [TCMDC-134437], the “HepG2 cells mean TOX50” value in data set [1] (HepG2 cells; mean) is 6.24 µM. Further, the IC50 in data set [2] (setting [6]) is 1.66 µM; in data set [4] (setting [8]) it was 1.37 µM. Also, the “Gametocytes mean ATP inhibition at 2µM” value in data set [3] was 7.50%.

In the case of `CCC1CN2CCc3cc(OC)c(OC)cc3C2CC1CC1NCCc2cc(OC)c(OC)cc21` (stereo not shown) [TCMDC-125849], in data set [1] (HepG2 cells; mean), the “HepG2 cells mean TOX50” value was determined as 2.24 µM. Moreover, the figures for the IC50 in data set [2] (setting [6]) and in data set [4] (setting [8]) were 0.15 µM and 1.82 µM, respectively. Further, the “Gametocytes mean ATP inhibition at 2µM” value in data set [3] is given as 60.00%.

`CCc1c(CCNCCCCCCNC(C)Cc2ccc3c(c2CC)OCO3)ccc(OC)c1OC.Cl` (stereo not shown) [TCMDC-132052]: in data set [1] (HepG2 cells; mean), the “HepG2 cells mean TOX50” value is recorded as 2.46 µM. For the same compound, the IC50 in data set [2] (setting [6]) was 0.87 µM; in data set [4] (setting [8]), 0.48 µM. Besides, in data set [3], the “Gametocytes mean ATP inhibition at 2µM” value turned out to be 35.74%.

With `Clc1cccc(C23N=C(Nc4nc5ccccc5[nH]4)NC2(c2ccccc2)NC(Nc2nc4ccccc4[nH]2)=N3)c1` (stereo not shown) [TCMDC-139089], the “HepG2 cells mean TOX50” value in data set [1] (mean) was 42.76 µM. Besides, the IC50 was 0.52 µM in data set [2] (setting [5]) and 0.15 µM in data set [4]. In data set [3], the “Gametocytes mean ATP inhibition at 2µM (%)” value is 71.66%.

For `CCCCSc1c(CNCCCCCCNCc2ccc3ccccc3c2SCCCC)ccc2ccccc12.CS(=O)(=O)O` [TCMDC-137825], in data set [1] (mean), the “HepG2 cells mean TOX50” value is on record as 2.76 µM. For the same compound, the results for the IC50 in data set [2] (setting [5]) and in data set [4] were 1 µM and 0.97 µM, respectively. Also, the “Gametocytes mean ATP inhibition at 2µM (%)” value in data set [3] is 10.43%.

With `CN(C)CCN(C)Cc1cccc(-c2ccc3c(Nc4ccc(F)cc4Cl)ccnc3c2)c1` [TCMDC-138416], the “HepG2 cells mean TOX50” value in data set [1] (mean) was determined as 6.10 µM. Besides, the IC50 was 0.11 µM in data set [2] (setting [5]) and 7.02 µM in data set [4]. Besides, in data set [3], the “Gametocytes mean ATP inhibition at 2µM (%)” value is given as 39.96%.

In the case of `COC(=O)c1ccc(-c2ccc(-c3cccnc3)cc2C)cc1` [TCMDC-139074], the “HepG2 cells mean TOX50” value in data set [1] (mean) is 3.63 µM. Moreover, the IC50 was 0.66 µM in data set [2] (setting [5]) and 0.59 µM in data set [4]. Also, the “Gametocytes mean ATP inhibition at 2µM (%)” value in data set [3] came to 88.85%.

Take `COc1ccc(-c2ccccc2)cc1NC(=S)NC1CCC(CN2CCC(c3c[nH]c4ccccc34)CC2)CC1` (stereo not shown) [TCMDC-140182]: the “HepG2 cells mean TOX50” value in data set [1] (mean) is 5.50 µM. The figures for the IC50 in data set [2] (setting [5]) and in data set [4] were 0.65 µM and 1.65 µM, respectively. The “Gametocytes mean ATP inhibition at 2µM (%)” value in data set [3] is given as 21.09%.

Regarding `NCCCCNc1cc(-c2ccnc(Nc3cccc(Cl)c3)n2)ccn1` [TCMDC-134683], in data set [1] (HepG2 cells; mean), the “HepG2 cells mean TOX50” value came to 0.67 µM. The IC50 in data set [2] (setting [6]) was 0.28 µM; in data set [4] (setting [8]), 1.46 µM. Moreover, the “Gametocytes mean ATP inhibition at 2µM” value in data set [3] is listed as -0.61%.

In the case of `c1cc(C2=N[C@H]3CCCC[C@@H]3N2)ccc1OCCCOc1ccc(C2=N[C@@H]3CCCC[C@H]3N2)cc1` [TCMDC-137803], the “HepG2 cells mean TOX50” value in data set [1] (mean) worked out at 38.02 µM. Moreover, the IC50 was 0.73 µM in data set [2] (setting [5]) and 11.5 µM in data set [4]. For the same compound, the “Gametocytes mean ATP inhibition at 2µM (%)” value in data set [3] stood at 57.55%.

For the compound `COc1c(C2CCN(CCN3CCC(CNC(=O)c4ccc(-c5ccc(C#N)cc5)cc4)CC3)CC2)ccc2c1CCCC2` [TCMDC-138859], in data set [1] (mean), the “HepG2 cells mean TOX50” value is on record as 3.43 µM. Also, the results for the IC50 in data set [2] (setting [5]) and in data set [4] were 0.46 µM and 1.46 µM, respectively. The “Gametocytes mean ATP inhibition at 2µM (%)” value in data set [3] turned out to be 3.05%.

For the compound `CC(=O)N(Cc1ccc(CC(C)NCCc2cccc(Cl)c2)cc1)Cc1ccc(CC(C)NCCc2cccc(Cl)c2)cc1` (stereo not shown) [TCMDC-139678], the “HepG2 cells mean TOX50” value in data set [1] (mean) came to 2.85 µM. Further, the IC50 is 0.78 µM in data set [2] (setting [5]) and 0.81 µM in data set [4]. Besides, in data set [3], the “Gametocytes mean ATP inhibition at 2µM (%)” value is 14.97%.

As for `Cc1ccc(-c2nc3cc(NC(=O)c4ccc([N+](=O)[O-])o4)ccc3o2)cc1Cl` [TCMDC-123657], the “HepG2 cells mean TOX50” value in data set [1] (HepG2 cells; mean) stood at 1.72 µM. The IC50 in data set [2] (setting [6]) is 0.16 µM; in data set [4] (setting [8]), 1.35 µM. Also, the “Gametocytes mean ATP inhibition at 2µM” value in data set [3] amounted to 8.99%.

Take `CC(CO)(CO)NCc1cc2c3ccccc3c(CNC(C)(CO)CO)cc2c2ccccc12.CS(=O)(=O)O` [TCMDC-137752]: in data set [1] (mean), the “HepG2 cells mean TOX50” value is listed as 7.33 µM. For the same compound, the IC50 was 0.72 µM in data set [2] (setting [5]) and 4.42 µM in data set [4]. For the same compound, the “Gametocytes mean ATP inhibition at 2µM (%)” value in data set [3] worked out at 71.86%.

On to `CC(Cc1ccc(NC(=O)c2ccc(CNCCc3ccccc3)cc2)cc1)NCCc1cccc(Cl)c1.Cl` (stereo not shown) [TCMDC-139867], for which the “HepG2 cells mean TOX50” value in data set [1] (mean) came out at 4.17 µM. Also, the IC50 is 0.35 µM in data set [2] (setting [5]) and 2.07 µM in data set [4]. In addition, the “Gametocytes mean ATP inhibition at 2µM (%)” value in data set [3] is recorded as 10.73%.

For the compound `CN1CCN(CCCN(Cc2cccc(-c3ccc(CNCCc4ccccc4)cc3)c2)C(=O)c2cccs2)CC1.O=C(O)C(F)(F)F` [TCMDC-140568], the “HepG2 cells mean TOX50” value in data set [1] (mean) came out at 5.98 µM. In addition, the IC50 in data set [2] (setting [5]) was 0.72 µM; in data set [4], 1.71 µM. Besides, the “Gametocytes mean ATP inhibition at 2µM (%)” value in data set [3] is recorded as -8.58%.

As for `CN(C)CCNCc1ccc(-c2ccc3c(Nc4ccc(Oc5ccccc5)cc4)ccnc3c2)o1` [TCMDC-138399], the “HepG2 cells mean TOX50” value in data set [1] (mean) came out at 5.69 µM. Further, the figures for the IC50 in data set [2] (setting [5]) and in data set [4] were 0.28 µM and 1.56 µM, respectively. In data set [3], the “Gametocytes mean ATP inhibition at 2µM (%)” value came out at 14.30%.

`CN1CCc2cc(NS(=O)(=O)c3ccc(-c4ccc(Cl)cc4)cc3)c(OCCCN3CCCCC3)cc2CC1.Cl` [TCMDC-141754]: the “HepG2 cells mean TOX50” value in data set [1] (mean; HepG2 cells) came out at 2.23 µM. Besides, the IC50 in data set [2] (setting [6]) is 0.96 µM; in data set [4] (setting [7]) it was 0.97 µM. Also, in data set [3], the “Gametocytes mean ATP inhibition at 2µM” value was 6.66%.

As for `CCCCCCCCN1CCN(CCCCCCNc2c3ccccc3nc3ccccc23)CC1.Cl` [TCMDC-138015], the “HepG2 cells mean TOX50” value in data set [1] (mean) came to 3.35 µM. Also, the IC50 is 0.16 µM in data set [2] (setting [5]) and 0.64 µM in data set [4]. Further, the “Gametocytes mean ATP inhibition at 2µM (%)” value in data set [3] is reported as 57.24%.
